Tested on: KRAS G12V dependent lung adenocarcinoma cell line, NCI-H441
Test: Cellular pERK (Thr202/Tyr204) FRET/HTRF assay
Format: cell-based
Details: Homo sapiens
Method in brief: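 Phospho-ERK1/2 (Thr202/Tyr204) quantified by two-antibody HTRF in lysed NCI-H441 cells. Cells seeded overnight, treated with test compounds for 1 hr at 37 °C against DMSO control, then lysed and detected at room temperature; IC50 obtained by curve fitting.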

[1] = NCI-H441, pERK HTRF, NCI-H441 cells (KRAS G12V)
[2] = NCI-H441, cellular pERK (Thr202/Tyr204) HTRF, NCI-H441 cells

| SMILES | IC50 [1] | IC50 [2] |
| --- | --- | --- |
| [2H]C([2H])(Oc1nc(N2CCCC[C@H]3[C@H](F)[C@H]32)c2cnc(-c3cncc4ccc(F)c(Cl)c34)c(F)c2n1)[C@@]12CCCN1C[C@H](F)C2 [Example 85, 7-(5-Chloro-6-fluoroisoquinolin-4-yl)-8-fluoro-4-((1S,7R,8S)-8-fluoro-2-azabicyclo[5.1.0]octan-2-yl)-2-(((2R,7aS)-2-fluorotetrahydro-1H-pyrrolizin-7a(5H)-yl)methoxy-d2)pyrido[4,3-d]pyrimidine] | 50 to 500 nM | – |
| [2H]C([2H])([2H])Oc1c(F)ccc2cccc(-c3ncc4c(N5CCCO[C@H]6[C@H](F)[C@H]65)nc(OC([2H])([2H])[C@@]56CCCN5C[C@H](F)C6)nc4c3F)c12 [Example 86, (1R,7S,8R)-8-Fluoro-6-(8-fluoro-7-(7-fluoro-8-(methoxy-d3)naphthalen-1-yl)-2-(((2R,7aS)-2-fluorotetrahydro-1H-pyrrolizin-7a(5H)-yl)methoxy-d2)pyrido[4,3-d]pyrimidin-4-yl)-2-oxa-6-azabicyclo[5.1.0]octane] | < 50 nM | – |
| [2H]C([2H])(F)Oc1c(F)c(F)cc2cc(N)cc(-c3ncc4c(N5CCOC[C@H]6[C@H](F)[C@H]65)nc(OC([2H])([2H])[C@@]56CCCN5C[C@H](F)C6)nc4c3F)c12 [Example 88, 6,7-Difluoro-4-(8-fluoro-4-((1S,7S,8S)-8-fluoro-5-oxa-2-azabicyclo[5.1.0]octan-2-yl)-2-(((2R,7aS)-2-fluorotetrahydro-1H-pyrrolizin-7a(5H)-yl)methoxy-d2)pyrido[4,3-d]pyrimidin-7-yl)-5-(fluoromethoxy-d2)naphthalen-2-amine] | < 50 nM | – |
| [2H]C([2H])(Oc1nc(N2CCCO[C@H]3[C@H](F)[C@H]32)c2cnc(-c3cccc4ccc(F)c(OCF)c34)c(F)c2n1)[C@@]12CCCN1C[C@H](F)C2 [Example 92, (1R,7S,8R)-8-Fluoro-6-(8-fluoro-7-(7-fluoro-8-(fluoromethoxy)naphthalen-1-yl)-2-(((2R,7aS)-2-fluorotetrahydro-1H-pyrrolizin-7a(5H)-yl)methoxy-d2)pyrido[4,3-d]pyrimidin-4-yl)-2-oxa-6-azabicyclo[5.1.0]octane] | < 50 nM | – |
| [2H]C([2H])(Oc1nc(N2CCOC[C@H]3[C@H](F)[C@H]32)c2cnc(-c3cc(N)cc4c(F)c(F)c(F)c(C#C)c34)c(F)c2n1)[C@@]12CCCN1C[C@H](F)C2 [Example 93, 5-Ethynyl-6,7,8-trifluoro-4-(8-fluoro-4-((1S,7S,8S)-8-fluoro-5-oxa-2-azabicyclo[5.1.0]octan-2-yl)-2-(((2R,7aS)-2-fluorotetrahydro-1H-pyrrolizin-7a(5H)-yl)methoxy-d2)pyrido[4,3-d]pyrimidin-7-yl)naphthalen-2-amine] | < 50 nM | – |
| [2H]C([2H])(Oc1nc(N2CCC=C[C@H]3[C@H](F)[C@H]32)c2cnc(-c3cc(N)cc4cc(F)c(F)c(C#C)c34)c(F)c2n1)[C@@]12CCCN1C[C@H](F)C2 [Example 94, 5-ethynyl-6,7-difluoro-4-(8-fluoro-4-((1S,7R,8S)-8-fluoro-2-azabicyclo[5.1.0]oct-5-en-2-yl)-2-(((2R,7aS)-2-fluorotetrahydro-1H-pyrrolizin-7a(5H)-yl)methoxy-d2)pyrido[4,3-d]pyrimidin-7-yl)naphthalen-2-amine] | – | < 50 nM |
| [2H]C([2H])(F)Oc1c(F)c(F)cc2cccc(-c3ncc4c(N5CCCC[C@H]6[C@H](F)[C@H]65)nc(OC([2H])([2H])[C@@]56CCCN5C[C@H](F)C6)nc4c3F)c12 [Example 95, 7-(6,7-difluoro-8-(fluoromethoxy-d2)naphthalen-1-yl)-8-fluoro-4-((1S,7R,8S)-8-fluoro-2-azabicyclo[5.1.0]octan-2-yl)-2-(((2R,7aS)-2-fluorotetrahydro-1H-pyrrolizin-7a(5H)-yl)methoxy-d2)pyrido[4,3-d]pyrimidine] | – | < 50 nM |
| [2H]C([2H])(Oc1nc(N2CCCC[C@H]3[C@H](F)[C@H]32)c2cnc(-c3cc(N)cc4c(F)cc(F)c(C#C)c34)c(F)c2n1)[C@@]12CCCN1C[C@H](F)C2 [Example 96, 5-ethynyl-6,8-difluoro-4-(8-fluoro-4-((1S,7R,8S)-8-fluoro-2-azabicyclo[5.1.0]octan-2-yl)-2-(((2R,7aS)-2-fluorotetrahydro-1H-pyrrolizin-7a(5H)-yl)methoxy-d2)pyrido[4,3-d]pyrimidin-7-yl)naphthalen-2-amine] | – | < 50 nM |
| [2H]C([2H])(Oc1nc(N2CCCC[C@H]3[C@H](F)[C@H]32)c2cnc(-c3cncc4ccc(F)c(C#C)c34)c(F)c2n1)[C@@]12CCCN1C[C@H](F)C2 [Example 97, 7-(5-Ethynyl-6-fluoroisoquinolin-4-yl)-8-fluoro-4-((1S,7R,8S)-8-fluoro-2-azabicyclo[5.1.0]octan-2-yl)-2-(((2R,7aS)-2-fluorotetrahydro-1H-pyrrolizin-7a(5H)-yl)methoxy-d2)pyrido[4,3-d]pyrimidine] | – | < 50 nM |

Continued, values first:

| IC50 [1] | IC50 [2] | SMILES |
| --- | --- | --- |
| – | < 50 nM | [2H]C([2H])(Oc1nc(N2CCCC[C@H]3[C@H](F)[C@H]32)c2cnc(-c3cncc4ccc(F)c(OC)c34)c(F)c2n1)[C@@]12CCCN1C[C@H](F)C2 [Example 98, 8-Fluoro-7-(6-fluoro-5-methoxyisoquinolin-4-yl)-4-((1S,7R,8S)-8-fluoro-2-azabicyclo[5.1.0]octan-2-yl)-2-(((2R,7aS)-2-fluorotetrahydro-1H-pyrrolizin-7a(5H)-yl)methoxy-d2)pyrido[4,3-d]pyrimidine] |
| – | < 50 nM | [2H]C([2H])(Oc1nc(N2CCC=C[C@@H]3[C@@H](F)[C@@H]32)c2cnc(-c3cc(N)cc4cc(F)c(F)c(C#C)c34)c(F)c2n1)[C@@]12CCCN1C[C@H](F)C2 [Example 99, 5-ethynyl-6,7-difluoro-4-(8-fluoro-4-((1R,7S,8R)-8-fluoro-2-azabicyclo[5.1.0]oct-5-en-2-yl)-2-(((2R,7aS)-2-fluorotetrahydro-1H-pyrrolizin-7a(5H)-yl)methoxy-d2)pyrido[4,3-d]pyrimidin-7-yl)naphthalen-2-amine] |
| – | < 50 nM | [2H]C([2H])(F)Oc1c(F)ccc2cc(N)cc(-c3ncc4c(N5CCCC[C@H]6[C@H](F)[C@H]65)nc(OC([2H])([2H])[C@@]56CCCN5C[C@H](F)C6)nc4c3F)c12 [Example 100, 6-Fluoro-4-(8-fluoro-4-((1S,7R,8S)-8-fluoro-2-azabicyclo[5.1.0]octan-2-yl)-2-(((2R,7aS)-2-fluorotetrahydro-1H-pyrrolizin-7a(5H)-yl)methoxy-d2)pyrido[4,3-d]pyrimidin-7-yl)-5-(fluoromethoxy-d2)naphthalen-2-amine] |
| – | < 50 nM | [2H]C1([2H])OCCN(c2nc(OC([2H])([2H])[C@@]34CCCN3C[C@H](F)C4)nc3c(F)c(-c4cccc5ccc(F)c(C#C)c45)ncc23)[C@@H]2[C@@H](F)[C@@H]21 [Example 101, (1S,7S,8S)-2-(7-(8-ethynyl-7-fluoronaphthalen-1-yl)-8-fluoro-2-(((2R,7aS)-2-fluorotetrahydro-1H-pyrrolizin-7a(5H)-yl)methoxy-d2)pyrido[4,3-d]pyrimidin-4-yl)-8-fluoro-5-oxa-2-azabicyclo[5.1.0]octane-6,6-d2] |
| – | < 50 nM | C#Cc1c(F)ccc2cccc(-c3ncc4c(N5CCOC[C@H]6[C@H](F)[C@H]65)nc(OC[C@@]56CCCN5CC(=C(F)F)C6)nc4c3F)c12 [Example 102, (1S,7S,8S)-2-(2-(((S)-2-(Difluoromethylene)tetrahydro-1H-pyrrolizin-7a(5H)-yl)methoxy)-7-(8-ethynyl-7-fluoronaphthalen-1-yl)-8-fluoropyrido[4,3-d]pyrimidin-4-yl)-8-fluoro-5-oxa-2-azabicyclo[5.1.0]octane] |
| – | 500 to 10000 nM | C#Cc1c(F)ccc2cccc(-c3ncc4c(N5CCOC[C@@H]6[C@@H](F)[C@@H]65)nc(OC[C@@]56CCCN5CC(=C(F)F)C6)nc4c3F)c12 [Example 103, (1R,7R,8R)-2-(2-(((S)-2-(difluoromethylene)tetrahydro-1H-pyrrolizin-7a(5H)-yl)methoxy)-7-(8-ethynyl-7-fluoronaphthalen-1-yl)-8-fluoropyrido[4,3-d]pyrimidin-4-yl)-8-fluoro-5-oxa-2-azabicyclo[5.1.0]octane] |
| – | < 50 nM | C#Cc1c(F)ccc2cccc(-c3ncc4c(N5CCOC[C@H]6[C@H](F)[C@H]65)nc(OC[C@]56CCCN5CC(=C(F)F)C6)nc4c3F)c12 [Example 104, (1S,7S,8S)-2-(2-(((R)-2-(difluoromethylene)tetrahydro-1H-pyrrolizin-7a(5H)-yl)methoxy)-7-(8-ethynyl-7-fluoronaphthalen-1-yl)-8-fluoropyrido[4,3-d]pyrimidin-4-yl)-8-fluoro-5-oxa-2-azabicyclo[5.1.0]octane] |
| – | < 50 nM | C#Cc1c(F)c(F)cc2cccc(-c3ncc4c(N5CCOC[C@H]6[C@H](F)[C@H]65)nc(OC[C@@]56CCCN5CC(=C(F)F)C6)nc4c3F)c12 [Example 105, (1S,7S,8S)-2-(2-(((S)-2-(difluoromethylene)tetrahydro-1H-pyrrolizin-7a(5H)-yl)methoxy)-7-(8-ethynyl-6,7-difluoronaphthalen-1-yl)-8-fluoropyrido[4,3-d]pyrimidin-4-yl)-8-fluoro-5-oxa-2-azabicyclo[5.1.0]octane] |
| – | 500 to 10000 nM | C#Cc1c(F)c(F)cc2cccc(-c3ncc4c(N5CCOC[C@@H]6[C@@H](F)[C@@H]65)nc(OC[C@@]56CCCN5CC(=C(F)F)C6)nc4c3F)c12 [Example 106, (1R,7R,8R)-2-(2-(((S)-2-(difluoromethylene)tetrahydro-1H-pyrrolizin-7a(5H)-yl)methoxy)-7-(8-ethynyl-6,7-difluoronaphthalen-1-yl)-8-fluoropyrido[4,3-d]pyrimidin-4-yl)-8-fluoro-5-oxa-2-azabicyclo[5.1.0]octane] |

From patent US20250282799A1, “SUBSTITUTED PYRIDO[4,3-d]PYRIMIDINES AS KRAS MODULATORS” (Alterome Therapeutics, Inc., priority 2023, published 2025)
